Data as given in paper PMC7397269, “Synthesis and Evaluation of New Coumarin Derivatives as Antioxidant, Antimicrobial, and Anti-Inflammatory Agents” (Molecules, 2020).
Converted amounts (≈) assume the structure as drawn. Like-named read-outs stand apart in the source and are kept apart here.

What was measured:
[1] = test system: Escherichia coli ATCC 2592; experiment: Agar well diffusion, E. coli; assay type: cell-based; conditions: ATCC2592, 100 μL of 10 mg/mL in DMSO, read-out: diameter of inhibition zone, EC
Summary of the method: (§1)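 Wells (10 mm) in nutrient agar (bacteria, 1 × 10^8 CFU/mL) or Sabouraud dextrose agar (yeast, 1 × 10^6 CFU/mL) loaded with 100 μL of 10 mg/mL compound in DMSO. Plates incubated 24 h at 37 °C. Inhibition zone diameter (mm), mean of triplicates.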

[2] = test system: Saccharomyces cerevisiae local isolate; experiment: Agar well diffusion, S. cerevisiae; assay type: cell-based; conditions: read-out: diameter of inhibition zone, SC
Summary of the method: as §1

[3] = test system: tested microorganisms; experiment: MIC, summary over the tested microorganisms; assay type: cell-based; conditions: two-fold serial dilution
Excerpt: (§2) The new molecules were individually tested for their antimicrobial activity in vitro against standard bacteria strains from the American Type Culture Collection (ATCC), namely, Staphylococcus aureus ATCC 29213, Bacillus subtilis ATCC 6633, Bacillus megaterium ATCC 9885 (Gram-positive), Escherichia coli ATCC 2592, and Pseudomonas aeruginosa ATCC 27,953 (Gram-negative). The compounds were also microbiologically tested against locally isolated Saccharomyces cerevisiae (yeast) and the standard Agricultural Research Service Culture Collection (NRRL) strain of the yeast-like pathogenic fungus Candida albicans NRRL Y-477. Primary screening was conducted using the agar well diffusion method using nutrient agar (NA) medium and Sabourand dextrose agar (SDA) medium for the tested pathological bacteria and yeast, respectively. […].
(§3) The bacteriostatic activity of the active compounds (having IZ > 16 mm) was then evaluated using the two-fold serial dilution technique. Two-fold serial dilutions of the tested compounds solutions were prepared using the proper nutrient broth to reach final concentrations of 1000, 500, 250, and 125 μg/mL. The tubes were then inoculated with the test microorganisms grown in their suitable broth at 37 °C for 24 h (1 × 10^8 CFU/mL for bacteria and 1 × 10^6 CFU/mL of yeast), 0.1 mL of the above inoculum was administered per 5 mL, and the tubes were incubated at 37 °C for 24 h. The lowest concentration showing no growth was taken as the MIC.

[4] = test system: Candida albicans NRRL Y-477; experiment: MIC, two-fold serial dilution, C. albicans; assay type: cell-based; conditions: NRRLY477, read-out: Minimum inhibitory concentration, CA
Summary of the method: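 Compounds with agar-well inhibition zone >16 mm went on to two-fold broth dilution at final 1000, 500, 250 and 125 μg/mL. Inocula were 1×10^8 CFU/mL for bacteria and 1×10^6 CFU/mL for yeast (0.1 mL per 5 mL), incubated 37 °C for 24 h. MIC taken as the lowest concentration with no growth.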

[5] = target: T1, COX-1 (Homo sapiens, UniProt P23219); experiment: COX-1 inhibition, Cayman assay kit; assay type: biochemical; conditions: mean of two determinations
T1 construct: purchased Cayman Chemical 701070

[6] = test system: trypsin; experiment: Proteinase-inhibitory activity; assay type: biochemical; conditions: 250 µg/mL; mean ± SD (n = 3)
Summary of the method: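 Trypsin (0.06 mg per 2 mL, 20 mM Tris-HCl pH 7.4) was preincubated 5 min with test sample at 250 µg/mL, then 0.8% casein was added for 20 min. Perchloric acid stopped the reaction and supernatant absorbance was read at 280 nm. % inhibition is relative to the no-sample control, in triplicate.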

[7] = test system: Pseudomonas aeruginosa ATCC 27,953; experiment: MIC, two-fold serial dilution, P. aeruginosa; assay type: cell-based; conditions: ATCC27, read-out: Minimum inhibitory concentration, PA
Excerpt: as §2, §3

[8] = test system: Bacillus subtilis ATCC 6633; experiment: Agar well diffusion, B. subtilis; assay type: cell-based; conditions: ATCC6633, 100 μL of 10 mg/mL in DMSO, read-out: diameter of inhibition zone, BS
Summary of the method: as §1

[9] = test system: formaldehyde-induced rat paw oedema; experiment: Formaldehyde-induced rat paw oedema (prophylactic); assay type: in vivo; conditions: 2.5 mg/kg orally, 1 h after inducing inflammation
[10] = read-out: MIC against Gram-positive bacteria
[11] = well diffusion, 100 μL of 10 mg/mL in DMSO, S. cerevisiae
[12] = read-out: MIC against one or more tested microorganisms

T1 sequence (P23219 24-599): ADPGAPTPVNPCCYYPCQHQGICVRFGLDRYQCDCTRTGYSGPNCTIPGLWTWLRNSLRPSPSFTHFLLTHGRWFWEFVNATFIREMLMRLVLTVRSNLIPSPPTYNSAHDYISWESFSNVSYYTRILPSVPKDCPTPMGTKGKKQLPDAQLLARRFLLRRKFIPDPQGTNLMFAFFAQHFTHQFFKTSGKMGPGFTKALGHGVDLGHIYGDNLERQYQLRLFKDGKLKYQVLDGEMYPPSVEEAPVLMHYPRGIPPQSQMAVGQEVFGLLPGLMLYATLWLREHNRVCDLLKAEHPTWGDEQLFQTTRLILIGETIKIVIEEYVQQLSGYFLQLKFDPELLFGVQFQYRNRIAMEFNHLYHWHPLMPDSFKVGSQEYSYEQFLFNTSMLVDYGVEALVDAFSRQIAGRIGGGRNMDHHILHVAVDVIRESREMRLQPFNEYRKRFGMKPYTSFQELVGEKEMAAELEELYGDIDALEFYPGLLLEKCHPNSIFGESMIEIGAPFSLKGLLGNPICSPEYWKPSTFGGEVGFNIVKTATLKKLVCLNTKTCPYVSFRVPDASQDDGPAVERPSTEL

Structure (SMILES)	zone of inhibition at 10000 µg/mL [1] [mm]	melting point [°C]	zone of inhibition at 10000 µg/mL [2] [mm]	MIC [3, 10] [µg/mL]	MIC [4] [µg/mL]	IC50 [5] [µM]	% Inhibition (proteinase) [6] [%]	MIC [7] [µg/mL]	zone of inhibition at 10000 µg/mL [8] [mm]	zone of inhibition at 10000 µg/mL [2, 11] [mm]	MIC [3, 12] [µg/mL]	% inhibition of paw oedema [9] [%]	MIC ([3]; read-out: MIC against all microorganisms) [µg/mL]
Cc1ccc2oc(=O)c3c(c2c1)OC(N)=C(C#N)C3c1ccc([N+](=O)[O-])cc1 (racemic) [2a, (±)-2-Amino-9-methyl-4-(4-nitrophenyl)-5-oxo-4H,5H-pyrano[3,2-c]chromene-3-carbonitrile]	18	259 to 261	25	500 to 1000 (≈ 1330 to 2660 µM)	500 (≈ 1330 µM)	117	17.38 ± 1.63	500 (≈ 1330 µM)	22				
COc1cc(/C=N/C2=C(C#N)C(c3ccc([N+](=O)[O-])cc3)c3c(c4cc(C)ccc4oc3=O)O2)cc(OC)c1OC (racemic) [5c, (±)-9-methyl-4-(4-nitrophenyl)-5-oxo-2-((3,4,5-trimethoxybenzylidene)amino)-4H,5H-pyrano[3,2-c]chromene-3-carbonitrile]	24	221 to 223	27		500 (≈ 903 µM)	18.5	68.5 ± 6.23	500 (≈ 903 µM)	23				
Cc1ccc2oc(=O)c(S(=O)(=O)Nc3ccccc3)c(O)c2c1 [8b, 4-Hydroxy-6-methyl-2-oxo-N-phenyl-2H-chromene-3-sulfonamide]	18	324 to 325			1000 (≈ 3020 µM)	26	14.3 ± 2.21	1000 (≈ 3020 µM)	19	19			
O=c1oc2ccc(Cl)cc2c(O)c1S(=O)(=O)Nc1ccccc1 [8a, 6-Chloro-4-hydroxy-2-oxo-N-phenyl-2H-chromene-3-sulfonamide]	25	337 to 339			250 (≈ 711 µM)	25	44.7 ± 8.22	500 (≈ 1420 µM)	28	28			
O=c1oc2ccc(Cl)cc2c(O)c1S(=O)(=O)Nc1ccc(O)cc1 [8c, 6-Chloro-4-hydroxy-N-(4-hydroxyphenyl)-2-oxo-2H-chromene-3-sulfonamide]	27	250 to 251			125 (≈ 340 µM)	15.4	41.69 ± 2.83	250 (≈ 680 µM)	29	31 to 32	125 (≈ 340 µM)	9.45	
O=c1oc2ccc(Cl)cc2c(O)c1S(=O)(=O)Nc1ccc(S(=O)(=O)Nc2ncccn2)cc1 [7c, 6-Chloro-4-hydroxy-2-oxo-N-(4-(N-(pyrimidin-2-yl)sulfamoyl)phenyl)-2H-chromene-3-sulfonamide]	30	230 to 232			125 (≈ 246 µM)	62.3	8.9 ± 2.04	250 (≈ 491 µM)	31	31 to 32	125 (≈ 246 µM)		
Cc1ccc2oc(=O)c(S(=O)(=O)Nc3ccc(S(=O)(=O)Nc4ncccn4)cc3)c(O)c2c1 [7d, 4-Hydroxy-6-methyl-2-oxo-N-(4-(N-(pyrimidin-2-yl)sulfamoyl)phenyl)-2H-chromene-3-sulfonamide]	28	207 to 209			125 (≈ 256 µM)	214	36.84 ± 4.87	125 (≈ 256 µM)	31	31 to 32	125 (≈ 256 µM)		125 (≈ 256 µM)
NS(=O)(=O)c1ccc(NS(=O)(=O)c2c(O)c3cc(Cl)ccc3oc2=O)cc1 [7a, 6-Chloro-4-hydroxy-2-oxo-N-(4-sulfamoylphenyl)-2H-chromene-3-sulfonamide]	28	245 to 247			250 (≈ 580 µM)	239	18.78 ± 2.05	250 (≈ 580 µM)	29	26			
Cc1ccc2oc(=O)c(S(=O)(=O)Nc3ccc(S(=O)(=O)Nc4nccs4)cc3)c(O)c2c1 [7f, 4-Hydroxy-6-methyl-2-oxo-N-(4-(N-(thiazol-2-yl)sulfamoyl)phenyl)-2H-chromene-3-sulfonamide]	23	167 to 169			500 (≈ 1010 µM)	40.9	43.88 ± 5.6	500 (≈ 1010 µM)	27	26		17.18	
Cc1ccc2oc(=O)c(S(=O)(=O)Nc3ccc(O)cc3)c(O)c2c1 [8d, 4-Hydroxy-N-(4-hydroxyphenyl)-6-methyl-2-oxo-2H-chromene-3-sulfonamide]	31	253 to 254			125 (≈ 360 µM)	19.4	20.15 ± 7.31	125 (≈ 360 µM)	29	31 to 32	125 (≈ 360 µM)		
O=c1oc2ccc(Cl)cc2c(O)c1S(=O)(=O)Nc1ccc(S(=O)(=O)Nc2nccs2)cc1 [7e, 6-Chloro-4-hydroxy-2-oxo-N-(4-(N-(thiazol-2-yl)sulfamoyl)phenyl)-2H-chromene-3-sulfonamide]	20	215 to 217			500 (≈ 973 µM)	29.6	19.8 ± 2.54	1000 (≈ 1950 µM)	25	20			
Cc1ccc2oc(=O)c3c(c2c1)OC(/N=C/c1ccc(Cl)cc1Cl)=C(C#N)C3c1ccco1 (racemic) [5f, (±)-2-((2,4-dichlorobenzylidene)amino)-4-(furan-2-yl)-9-methyl-5-oxo-4H,5H-pyrano[3,2-c]chromene-3-carbonitrile]	20	> 300	24	500 to 1000 (≈ 1050 to 2100 µM)	500 (≈ 1050 µM)	90.2	26.83 ± 5.33	1000 (≈ 2100 µM)	23				
